# In PMC9983021, “Novel GluN2B-Selective NMDA Receptor Negative Allosteric Modulator Possesses Intrinsic Analgesic Properties and Enhances Analgesia of Morphine in a Rodent Tail Flick Pain Model” (ACS Chemical Neuroscience, 2023):
# Columns and labels:
# GluN1/GluN2A = GluN1/GluN2A (Rattus norvegicus, UniProt P35439+Q00959)
# Sigma1 (σ1) [1] = assay: Radioligand binding assay (NIMH PDSP); parameters: species or system human; details: ratio of Ki to the IC50 for EU93-108 (555 nM) at GluN2B
# Sigma1 (σ1) [2] = biological target: Sigma1 (σ1) (Homo sapiens, UniProt Q99720); assay: Radioligand binding assay (NIMH PDSP)
# Sprague-Dawley rats = assay: Chung spinal nerve ligation model of allodynia; type: in vivo; details: male rats, 10 mg/kg i.p., n=10
# Experimental: Methods for Chung Spinal Nerve Ligation
# The Chung spinal nerve ligation model was implemented by Algos Therapeutics. Male Sprague-Dawley rats (Hsd:Sprague-Dawley®™SD®™, Harlan, Indianapolis, Indiana, U.S.A.) weighing 222 ± 1 g were housed three per cage and given ad libitum access to food and water. Animal holding rooms operated on a 12:12h light/dark schedule for the entire duration of the study. The animal colony was maintained at 21 °C and 60% humidity. All experiments were conducted in accordance with the International Association for the Study of Pain guidelines and were approved by the University of Minnesota Animal Care and Use Committee.
# Allodynia was induced via the Chung spinal nerve ligation (SNL) method116 in which the animals were anesthetized with isoflurane, the left L5 transverse process was removed, then the L5 and L6 spinal nerves were tightly ligated with 6-0 silk suture. Finally, the wound was closed with internal sutures and external staples. Allodynia was assessed using 8 Semmes-Weinstein filaments (Stoelting, Wood Dale, IL, USA) with varying stiffness (0.4, 0.7, 1.2, 2.0, 3.6, 5.5, 8.5, and 15 g) following the up-down method117 first published by Chaplan et al. in 1994. Baseline measurements were taken two weeks following SNL and prior to compound administration. Measurements were also taken 30, 60, 120 and 240 minutes post intraperitoneal compound injection. […]
# α4β2-nACh = biological target: T1, α4β2-nACh (Homo sapiens, UniProt P17787+P43681); assay: Off-target ligand-gated ion channels in Xenopus oocytes; type: cell-based; details: agonist 10 µM acetylcholine; mean ± SEM
# T1 construct: expressed in transfected cells; host or cells: Xenopus oocytes
# Experimental: (§1) EU93-108 was further examined for its behavior against common off-target receptors. First, selectivity for GluN2B over other ion channels in the brain was examined via two-electrode voltage clamp recordings of Xenopus oocytes expressing AMPA, kainate, nicotinic acetylcholine, serotonin, GABA, glycine, and ATP receptors. Current responses were tested with saturating concentrations of agonist in both the absence and presence of 10 μM EU93-108, and confirmed selectivity for GluN2B-containing NMDA receptors over AMPA, kainate, GABA, glycine, ATP, and 5-HT3A receptors (Supporting Table S3).
# (§2) Receptor Agonist % Control
# (§3) Supplemental Table S3. Off-target actions of EU93-108 at ligand-gated ion channels expressed in Xenopus oocytes. The mean ± standard error of the mean for agonist plus 10 μM EU93-108 as a percentage of agonist in vehicle are given for each compound and receptor tested. Number of oocytes tested is given in parentheses.
# GluA2-R607Q = biological target: T2, GluA2-R607Q (Homo sapiens, UniProt P42262); assay: as above; type: cell-based; details: agonist 100 µM glutamate; mean ± SEM
# T2 construct: expressed in transfected cells; host or cells: Xenopus oocytes
# Experimental: as §1, §2, §3
# 5-HT3A = biological target: T3, 5-HT3A (Homo sapiens, UniProt P46098); assay: as above; type: cell-based; details: agonist 100 µM serotonin; mean ± SEM
# T3 construct: expressed in transfected cells; host or cells: Xenopus oocytes
# Experimental: as §1, §2, §3
# ρ-GABAC = assay: as above; type: cell-based; details: agonist 100 µM GABA; mean ± SEM
# Experimental: as §1, §2, §3
# GluA1 = biological target: T4, GluA1 (Homo sapiens, UniProt P42261); assay: as above; type: cell-based; details: agonist 100 µM glutamate; mean ± SEM
# T4 construct: expressed in transfected cells; host or cells: Xenopus oocytes
# Experimental: as §1, §2, §3
# α7-nACh = biological target: T5, α7-nACh (Homo sapiens, UniProt P36544); assay: as above; type: cell-based; details: agonist 300 µM acetylcholine; mean ± SEM
# T5 construct: expressed in transfected cells; host or cells: Xenopus oocytes
# Experimental: as §1, §2, §3
# α1β2γ2S-GABAA = biological target: T6, α1β2γ2S-GABAA (Homo sapiens, UniProt P14867+P18507+P47870); assay: as above; type: cell-based; details: agonist 100 µM GABA; mean ± SEM
# T6 construct: expressed in transfected cells; host or cells: Xenopus oocytes
# Experimental: as §1, §2, §3
# hGluA3-L531Y = biological target: T7, hGluA3-L531Y (Homo sapiens, UniProt P42263, L513Y); assay: as above; type: cell-based; details: agonist 100 µM glutamate; mean ± SEM
# T7 construct: expressed in transfected cells; host or cells: Xenopus oocytes
# Experimental: as §1, §2, §3
# α1-Glycine = biological target: T8, α1-Glycine (Homo sapiens, UniProt P23415); assay: as above; type: cell-based; details: agonist 100 µM glycine; mean ± SEM
# T8 construct: expressed in transfected cells; host or cells: Xenopus oocytes
# Experimental: as §1, §2, §3
# GluK2 = biological target: T9, GluK2 (Homo sapiens, UniProt Q13002); assay: as above; type: cell-based; details: agonist 100 µM glutamate; mean ± SEM
# T9 construct: expressed in transfected cells; host or cells: Xenopus oocytes
# Experimental: as §1, §2, §3
# hGluN1/GluN3A = biological target: T10, hGluN1/GluN3A (Homo sapiens, UniProt Q05586+Q8TCU5); assay: as above; type: cell-based; details: agonist 100 µM glycine; mean ± SEM
# T10 construct: expressed in transfected cells; host or cells: Xenopus oocytes
# Experimental: as §1, §2, §3
# rGluN1/GluN3B = biological target: T11, rGluN1/GluN3B (Rattus norvegicus, UniProt P35439+Q8VHN2); assay: as above; type: cell-based; details: agonist 100 µM glycine; mean ± SEM
# T11 construct: expressed in transfected cells; host or cells: Xenopus oocytes
# Experimental: as §1, §2, §3
# PBR = assay: Radioligand binding assay (NIMH PDSP); parameters: species or system human; details: primary screen, 10 µM, quadruplicate
# Experimental: Conventional competition and saturation radioligand binding assays were used to determine the affinities of reference standards and EU93-108. Experiments were carried out by the NIMH Psychoactive Drug Screening Program (PDSP) and were performed as previously described.[123]
# The detailed experimental protocols for the radioligand assays are available on the NIMH PDSP website at https://pdsp.unc.edu/pdspweb/content/UNC-CH%20Protocol%20Book.pdf.
# Receptor Mean % Receptor Mean % Receptor Mean %
# Inhibition Inhibition Inhibition
# Supplemental Table S4. Off-Target Actions of EU93-108: Primary GPCR Screen. Cloned human molecular targets were individually expressed and submitted to molecular target-based screening with initial screens performed at a final concentration of 10 µM in quadruplicate. Complete protocols for the assays have been previously published (Besnard J et al. 2012). Where inhibition greater than 50% was measured, secondary screens were performed wherein Ki values were calculated (see Table 4).
# Sequence of Sigma1 (σ1) (Homo sapiens, UniProt Q99720) (Q99720 whole entry): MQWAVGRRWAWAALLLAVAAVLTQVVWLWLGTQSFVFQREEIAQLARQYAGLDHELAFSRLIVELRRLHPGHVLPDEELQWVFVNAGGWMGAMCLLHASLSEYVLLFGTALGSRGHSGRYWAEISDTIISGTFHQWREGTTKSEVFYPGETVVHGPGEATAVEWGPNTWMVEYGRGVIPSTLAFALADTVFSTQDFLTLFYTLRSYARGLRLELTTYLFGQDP
# Sequence of GluN1/GluN2A (Q00959 23-1464, other chains not shown): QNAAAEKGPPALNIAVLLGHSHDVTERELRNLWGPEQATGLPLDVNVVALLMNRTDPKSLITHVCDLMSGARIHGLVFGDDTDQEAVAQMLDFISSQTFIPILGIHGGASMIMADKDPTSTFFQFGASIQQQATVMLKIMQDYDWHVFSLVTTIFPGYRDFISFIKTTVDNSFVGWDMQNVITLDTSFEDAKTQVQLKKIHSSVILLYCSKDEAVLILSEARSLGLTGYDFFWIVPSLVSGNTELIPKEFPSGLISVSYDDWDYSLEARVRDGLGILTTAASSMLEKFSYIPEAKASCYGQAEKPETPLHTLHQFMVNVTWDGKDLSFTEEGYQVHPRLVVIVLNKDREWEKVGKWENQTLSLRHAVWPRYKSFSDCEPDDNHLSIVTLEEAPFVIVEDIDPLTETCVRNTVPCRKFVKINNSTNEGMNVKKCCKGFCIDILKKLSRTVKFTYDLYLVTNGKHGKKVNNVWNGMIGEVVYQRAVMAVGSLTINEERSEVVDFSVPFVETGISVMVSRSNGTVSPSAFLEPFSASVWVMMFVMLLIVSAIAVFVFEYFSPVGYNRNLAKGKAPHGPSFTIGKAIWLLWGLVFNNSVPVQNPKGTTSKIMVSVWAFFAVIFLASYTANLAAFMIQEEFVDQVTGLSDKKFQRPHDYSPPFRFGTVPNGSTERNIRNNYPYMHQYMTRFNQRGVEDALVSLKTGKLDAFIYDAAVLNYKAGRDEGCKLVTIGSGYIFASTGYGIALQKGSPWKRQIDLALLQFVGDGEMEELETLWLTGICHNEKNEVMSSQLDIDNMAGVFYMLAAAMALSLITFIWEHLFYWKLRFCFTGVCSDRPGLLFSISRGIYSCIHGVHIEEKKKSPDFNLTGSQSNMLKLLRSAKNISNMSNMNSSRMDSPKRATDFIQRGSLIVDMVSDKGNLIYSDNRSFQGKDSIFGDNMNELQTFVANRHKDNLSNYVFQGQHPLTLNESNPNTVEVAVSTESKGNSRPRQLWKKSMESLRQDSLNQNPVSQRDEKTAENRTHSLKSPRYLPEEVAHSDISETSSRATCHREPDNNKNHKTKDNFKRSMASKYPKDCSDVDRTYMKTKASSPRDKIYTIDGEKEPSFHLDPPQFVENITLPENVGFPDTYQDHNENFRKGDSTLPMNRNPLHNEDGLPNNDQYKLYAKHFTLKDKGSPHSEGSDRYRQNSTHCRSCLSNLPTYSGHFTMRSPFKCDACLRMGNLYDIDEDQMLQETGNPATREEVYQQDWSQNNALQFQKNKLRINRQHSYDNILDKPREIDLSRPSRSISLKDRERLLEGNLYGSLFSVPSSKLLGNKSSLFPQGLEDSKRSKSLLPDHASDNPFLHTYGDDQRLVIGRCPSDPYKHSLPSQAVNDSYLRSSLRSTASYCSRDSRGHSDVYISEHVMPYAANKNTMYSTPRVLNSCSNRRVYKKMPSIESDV
# T11 sequence (Q8VHN2 25-1002, other chains not shown): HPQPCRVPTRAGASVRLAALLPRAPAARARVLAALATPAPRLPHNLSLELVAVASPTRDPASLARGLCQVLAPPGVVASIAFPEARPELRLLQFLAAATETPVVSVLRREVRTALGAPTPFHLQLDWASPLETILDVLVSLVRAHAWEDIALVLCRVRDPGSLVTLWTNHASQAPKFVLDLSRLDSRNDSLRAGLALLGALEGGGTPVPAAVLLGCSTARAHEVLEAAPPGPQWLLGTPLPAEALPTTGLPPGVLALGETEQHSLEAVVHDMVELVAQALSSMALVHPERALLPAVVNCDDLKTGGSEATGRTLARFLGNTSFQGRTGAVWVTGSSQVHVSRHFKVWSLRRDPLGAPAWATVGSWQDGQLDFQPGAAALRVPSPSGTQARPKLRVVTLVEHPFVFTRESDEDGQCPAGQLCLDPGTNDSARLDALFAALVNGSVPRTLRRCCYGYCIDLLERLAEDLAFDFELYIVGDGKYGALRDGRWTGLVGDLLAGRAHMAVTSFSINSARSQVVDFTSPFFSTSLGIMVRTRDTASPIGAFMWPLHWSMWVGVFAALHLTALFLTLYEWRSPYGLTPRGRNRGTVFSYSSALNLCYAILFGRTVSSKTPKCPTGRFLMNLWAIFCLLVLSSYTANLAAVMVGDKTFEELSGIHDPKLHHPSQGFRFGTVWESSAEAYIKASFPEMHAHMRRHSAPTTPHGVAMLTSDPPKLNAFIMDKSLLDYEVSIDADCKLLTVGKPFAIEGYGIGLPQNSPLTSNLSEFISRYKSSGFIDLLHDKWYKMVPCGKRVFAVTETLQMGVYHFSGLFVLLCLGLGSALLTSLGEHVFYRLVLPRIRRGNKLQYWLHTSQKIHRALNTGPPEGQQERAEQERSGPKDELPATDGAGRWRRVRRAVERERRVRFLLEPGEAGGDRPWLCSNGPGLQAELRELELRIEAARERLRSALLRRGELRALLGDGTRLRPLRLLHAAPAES
# T10 sequence (Q8TCU5 24-1115, other chains not shown): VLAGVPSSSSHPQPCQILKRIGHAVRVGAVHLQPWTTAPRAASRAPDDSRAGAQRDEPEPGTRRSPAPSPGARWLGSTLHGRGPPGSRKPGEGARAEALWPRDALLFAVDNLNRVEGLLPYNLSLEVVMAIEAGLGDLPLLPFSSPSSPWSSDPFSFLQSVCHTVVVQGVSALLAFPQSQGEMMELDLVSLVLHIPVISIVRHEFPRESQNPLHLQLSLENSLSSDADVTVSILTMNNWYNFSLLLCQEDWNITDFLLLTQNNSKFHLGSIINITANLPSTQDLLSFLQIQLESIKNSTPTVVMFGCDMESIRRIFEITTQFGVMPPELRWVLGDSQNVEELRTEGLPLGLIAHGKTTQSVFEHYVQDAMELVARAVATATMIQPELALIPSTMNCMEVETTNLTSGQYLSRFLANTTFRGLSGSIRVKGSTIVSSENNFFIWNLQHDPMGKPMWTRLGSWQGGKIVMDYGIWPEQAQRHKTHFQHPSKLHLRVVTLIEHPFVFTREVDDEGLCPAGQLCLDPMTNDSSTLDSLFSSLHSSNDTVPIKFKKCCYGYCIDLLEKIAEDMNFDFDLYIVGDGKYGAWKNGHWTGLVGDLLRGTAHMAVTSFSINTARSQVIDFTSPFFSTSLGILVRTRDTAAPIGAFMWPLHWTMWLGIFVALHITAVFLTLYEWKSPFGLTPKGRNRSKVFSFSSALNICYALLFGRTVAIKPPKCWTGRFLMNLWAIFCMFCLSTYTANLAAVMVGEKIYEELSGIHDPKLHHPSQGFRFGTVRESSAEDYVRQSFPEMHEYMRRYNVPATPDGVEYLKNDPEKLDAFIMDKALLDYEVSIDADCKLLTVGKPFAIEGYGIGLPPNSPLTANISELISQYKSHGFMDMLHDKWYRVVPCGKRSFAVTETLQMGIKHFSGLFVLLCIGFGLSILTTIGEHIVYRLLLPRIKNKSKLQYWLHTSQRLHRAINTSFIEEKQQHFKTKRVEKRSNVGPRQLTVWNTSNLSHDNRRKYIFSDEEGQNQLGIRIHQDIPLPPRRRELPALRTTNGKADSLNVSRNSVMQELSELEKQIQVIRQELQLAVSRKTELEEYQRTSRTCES
# T2 sequence (P42262 25-883, stated change not applied): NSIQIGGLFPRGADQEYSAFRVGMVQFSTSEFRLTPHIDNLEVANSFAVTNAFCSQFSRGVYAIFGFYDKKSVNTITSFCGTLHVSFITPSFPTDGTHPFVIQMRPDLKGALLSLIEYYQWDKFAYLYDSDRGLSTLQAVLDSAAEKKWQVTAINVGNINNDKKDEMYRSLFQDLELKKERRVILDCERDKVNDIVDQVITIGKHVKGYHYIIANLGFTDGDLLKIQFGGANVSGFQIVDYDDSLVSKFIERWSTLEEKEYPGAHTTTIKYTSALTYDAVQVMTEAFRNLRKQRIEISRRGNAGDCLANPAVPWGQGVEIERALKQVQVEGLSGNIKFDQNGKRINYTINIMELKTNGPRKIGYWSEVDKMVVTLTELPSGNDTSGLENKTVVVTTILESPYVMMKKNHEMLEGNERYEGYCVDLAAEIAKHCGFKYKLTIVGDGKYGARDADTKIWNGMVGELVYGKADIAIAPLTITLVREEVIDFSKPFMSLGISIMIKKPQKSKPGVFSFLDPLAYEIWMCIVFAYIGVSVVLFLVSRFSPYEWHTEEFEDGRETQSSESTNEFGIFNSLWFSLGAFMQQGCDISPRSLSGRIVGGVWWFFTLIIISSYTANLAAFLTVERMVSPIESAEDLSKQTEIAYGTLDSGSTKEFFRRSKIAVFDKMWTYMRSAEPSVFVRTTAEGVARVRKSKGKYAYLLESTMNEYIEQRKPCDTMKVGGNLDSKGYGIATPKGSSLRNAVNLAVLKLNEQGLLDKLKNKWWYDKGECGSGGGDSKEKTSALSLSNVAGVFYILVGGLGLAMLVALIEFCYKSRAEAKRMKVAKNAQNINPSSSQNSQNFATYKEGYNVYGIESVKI
# T5 sequence (P36544 23-502): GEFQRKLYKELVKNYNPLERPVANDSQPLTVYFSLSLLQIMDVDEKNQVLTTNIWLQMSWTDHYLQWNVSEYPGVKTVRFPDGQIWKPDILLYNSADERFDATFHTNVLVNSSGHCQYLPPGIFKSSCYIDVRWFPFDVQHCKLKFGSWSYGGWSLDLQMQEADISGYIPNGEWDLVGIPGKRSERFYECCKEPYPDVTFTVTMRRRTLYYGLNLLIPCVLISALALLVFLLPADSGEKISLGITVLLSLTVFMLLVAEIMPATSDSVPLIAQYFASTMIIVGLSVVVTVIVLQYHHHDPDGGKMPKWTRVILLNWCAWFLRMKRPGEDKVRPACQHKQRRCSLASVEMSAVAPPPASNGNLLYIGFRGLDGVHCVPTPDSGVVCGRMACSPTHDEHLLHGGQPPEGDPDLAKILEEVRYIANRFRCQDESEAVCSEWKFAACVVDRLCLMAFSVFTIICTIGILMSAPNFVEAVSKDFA
smiles,measurement,setting,value
"CS(=O)(=O)Nc1ccc(OC[C@@H](O)CN2CCN(c3ccc(F)c(F)c3)CC2)cc1 [EU93-108, (S)-N-(4-(3-(4-(3,4-Difluorophenyl)piperazin-1-yl)-2-hydroxypropoxy)phenyl)methanesulfonamide]",% Control 10 µM EU93-108,"GluN1/GluN2A; agonist 100 µM glutamate, 30 µM glycine, mean ± SEM",95.6 ± 1.6%
same,inhibition at 10 µM,GluN1/GluN2A; read-out: Mean % Inhibition by 10 μM EU93-108,4.6 ± 1.5%
same,Ki/IC50 of EU93-108,Sigma1 (σ1) [1],0.91
same,inhibition at 10 µM,"Sigma1 (σ1) [2]; primary screen, 10 µM, quadruplicate",69.2%
same,Ki,"Sigma1 (σ1) [2]; secondary screen, binding competition curve",505 nM
same,effect on allodynia (von Frey threshold),Sprague-Dawley rats,efficacious
same,% Control 10 µM EU93-108,α4β2-nACh,3.2 ± 0.7%
same,% Control 10 µM EU93-108,GluA2-R607Q,98.4 ± 0.57%
same,% Control 10 µM EU93-108,5-HT3A,92.8 ± 2.7%
same,% Control 10 µM EU93-108,ρ-GABAC,97 ± 1.5%
same,% Control 10 µM EU93-108,GluA1,101.3 ± 1.9%
same,% Control 10 µM EU93-108,α7-nACh,70.9 ± 6.5%
same,% Control 10 µM EU93-108,α1β2γ2S-GABAA,92.8 ± 1.5%
same,% Control 10 µM EU93-108,hGluA3-L531Y,94.7 ± 5.1%
same,% Control 10 µM EU93-108,α1-Glycine,105 ± 6.6%
same,% Control 10 µM EU93-108,GluK2,88.1 ± 4.4%
same,% Control 10 µM EU93-108,hGluN1/GluN3A,103.6 ± 1.7%
same,% Control 10 µM EU93-108,rGluN1/GluN3B,108.8 ± 4.0%
same,Mean % Inhibition,PBR,-0.34%
